The nature of series [1]: Bulk density for salts of Compound 1. Conditions: Form A. Type of series: physicochemical.
The format of series [2] is physicochemical. Conditions: for Final pH: 37° C., 24 h.
The format of series [3] is physicochemical.
Series [4] in a line: Dynamic vapor sorption (DVS), gravimetric moisture sorption. Type of series: physicochemical. Conditions: at 80% Relative Humidity, 25° C. On the procedure:
Dynamic Vapor Sorption (DVS) were collected conducted using an SMS DVS Advantage 1 system. For each sample analyzed approximately 10 mg of material was transferred into the DVS instrument and recorded the weight change with respect to the atmospheric humidity at 25° C. using the following parameters: Equilibrium dm/dt: 0.01%/min, (for min: 10 min and max: 180 min); drying setting were 0% RH for 120 min; RH (%) measurement step at 10% and RH (%) measurement step scope of 0-90-0%.

Series [5] is classed as physicochemical. Conditions: 1 w. How it is done:
For each salt, approximately 5 mg compound was added into an 8 mL glass vial with a multi-hole aluminum foil cap, and kept at 60° C., 40° C./75% RH for 1 week. […] Appearance by visual observation were recorded followed by purity assessment and XPRD data collection on the residual solids.

Where [6] appears, read: 1.2 million lux-hrs, listed as Hydrobromide (Form C).
Setting [7] is: Dark control, listed as Hydrobromide (Form C).
[8] abbreviates: 40° C./75% RH, listed as Hydrobromide (Form C).
Setting [9] is: 60° C., listed as Hydrobromide (Form C).
Setting [10] is: 1.2 million lux-hrs, listed as Hydrobromide (Form A).
[11] abbreviates: Dark control, listed as Hydrobromide (Form A).
Where [12] appears, read: 40° C./75% RH, listed as Hydrobromide (Form A).
The mark [13] stands for this setting: 60° C., listed as Hydrobromide (Form A).

Consider eight compounds from patent publication US10927141B2 (priority 2018, dated 2021).

Molecules are shown by their SMILES. Read-outs that look alike come from different tables or passages of the source.

`Br.COC[C@@]1(O)CC[C@@]2(C)[C@@H](CC[C@@H]3[C@@H]2CC[C@]2(C)[C@@H](C(=O)Cn4ccnc4)CC[C@@H]32)C1` [HBr]: in series [1], the “Bulk Density” value is 0.27 g/mL and the “Tapped Density” value is recorded as 0.50 g/mL.

As for `Br.COC[C@@]1(O)CC[C@@]2(C)[C@@H](CC[C@@H]3[C@@H]2CC[C@]2(C)[C@@H](C(=O)Cn4ccnc4)CC[C@@H]32)C1` [Compound 1 HBr (Form C)], the “Final pH” value came to 4.90 in series [2] (FaSSIF (original pH = 6.51), listed as Hydrobromide (Form C)); 5.05 in series [2] (FeSSIF (original pH = 4.99), listed as Hydrobromide (Form C)); 1.99 in series [2] (SGF (original pH = 1.82), listed as Hydrobromide (Form C)). In addition, the Final purity is listed as 98.1 in series [3] (setting [6]), 98.0 in series [3] (setting [7]), 98.4 in series [5] (setting [8]) and 98.1 in series [5] (setting [9]). Further, the XRPD pattern entry in series [3] (setting [6]), in series [3] (setting [7]), in series [5] (setting [8]) and in series [5] (setting [9]) was “Form C + B” in each case. The gravimetric moisture sorption entry in series [4] is on record as “about 0.25 % (by weight)”.

For the compound `O=C(O)CC(O)(CC(=O)O)C(=O)O` [Citrate], in series [1], the “Bulk Density” value amounted to 0.49 g/mL and the “Tapped Density” value came to 0.70 g/mL.

As to `Br.COC[C@@]1(O)CC[C@@]2(C)[C@@H](CC[C@@H]3[C@@H]2CC[C@]2(C)[C@@H](C(=O)Cn4ccnc4)CC[C@@H]32)C1` [Compound 1 HBr (Form A)], the “Final pH” value in series [2] (FaSSIF (original pH = 6.51), listed as Hydrobromide (Form A)) turned out to be 4.11; in series [2] (FeSSIF (original pH = 4.99), listed as Hydrobromide (Form A)), 5.01; in series [2] (SGF (original pH = 1.82)), 1.91. The Final purity is 98.2 in series [3] (setting [10]), 97.9 in series [3] (setting [11]), 98.2 in series [5] (setting [12]) and 98.0 in series [5] (setting [13]). For the same compound, the XRPD pattern entry in series [3] (setting [10]), in series [3] (setting [11]), in series [5] (setting [12]) and in series [5] (setting [13]) was “Form A” each time. Also, the gravimetric moisture sorption entry in series [4] is “about 1.1 % (by weight)”.

For the compound `O=C(O)C(O)C(O)C(=O)O` (centres unmarked) [Tartrate], in series [1], the “Bulk Density” value came out at 0.13 g/mL and the “Tapped Density” value was determined as 0.32 g/mL.

In the case of `COCC1(O)CCC2(C)C(CCC3C2CCC2(C)C(C(=O)Cn4ccnc4)CCC32)C1.Nc1ccc(C(=O)O)c(O)c1` (centres unmarked) [p-Aminosalicylate (Form A)], the “Final pH (FaSSIF)” value in series [2] (FaSSIF (original pH = 6.51), after solubility test) is listed as 5.12. Besides, the “Final pH (FeSSIF)” value in series [2] (FeSSIF (original pH = 4.99), after solubility test) worked out at 5.06. Besides, the “Final pH (SGF)” value in series [2] (SGF (original pH = 1.82), after solubility test) is 3.73.

Take `COCC1(O)CCC2(C)C(CCC3C2CCC2(C)C(C(=O)Cn4ccnc4)CCC32)C1.O=P(O)(O)O` (centres unmarked) [Phosphate]: in series [1], the “Bulk Density” value turned out to be 0.15 g/mL and the “Tapped Density” value amounted to 0.33 g/mL.

Turning to `Br.COCC1(O)CCC2(C)C(CCC3C2CCC2(C)C(C(=O)Cn4ccnc4)CCC32)C1` (centres unmarked) [Compound 1 HBr (Form B)], the entries for the “Final pH” value in series [2] (FaSSIF (original pH = 6.51)), in series [2] (FeSSIF (original pH = 4.99)) and in series [2] (SGF (original pH = 1.82)) were 5.51, 4.89 and 1.89, respectively. Besides, the Final purity in series [3] (1.2 million lux-hrs) came to 98.4; in series [3] (Dark control) it was 97.8; in series [5] (40° C./75% RH), 98.9; in series [5] (60° C.), 98.8. For the same compound, the XRPD pattern result in series [3] (1.2 million lux-hrs), in series [3] (Dark control), in series [5] (40° C./75% RH) and in series [5] (60° C.) was “Form B” each time. Besides, the gravimetric moisture sorption result in series [4] is “about 0.2 % (by weight)”.
